Source: publication PMC8538057, “Direct Delivery of ANA-TA9, a Peptide Capable of Aβ Hydrolysis, to the Brain by Intranasal Administration” (Pharmaceutics, 2021)
Like-named read-outs stand apart in the source and are kept apart here. Ends that are not written are not given here.

Tests used:
[1] = Degradation of ANA-TA9 in the rat nasal cavity (nasal perfusion); format: in vivo; conditions: 15 mL PBS at 10 μg/mL, 120 min, LC/MS, mean of three experiments
Description: Polyethylene tubing was inserted into the rat esophagus and trachea according to the method of Hirai et al.. Briefly, under anesthesia with the anesthetic mixture described in Section 2.3.2, the trachea was cannulated with polyethylene tubing, and another tube was inserted from the esophagus to the posterior part of the nasal cavity. The nasopalatine was closed with surgical adhesive. A solution of ANA-TA9 (15 mL PBS at 10 μg/mL) was perfused from the esophagus through the nasal cavity using a peristaltic pump (SJ-1211-H; ATTO, Tokyo, Japan). The perfusing solution of ANA-TA9 was sampled at predetermined times. The ANA-TA9 concentration in the perfusate was measured by liquid chromatography-mass spectrometry (LC/MS) after the same pretreatment as that of the plasma described in Section 2.4.2.

[2] = In vivo brain distribution study after i.n. and i.p. administration to mice; parameters: species or system Male ddY mice; conditions: mouse; for Tmax: plasma
Description: For i.n. administration, ANA-TA9 was dissolved in PBS at a concentration of 100 mg/mL. Since the profile of the concentration in the plasma after i.p. administration was similar with that after i.n. administration, i.p. administration served as the control for i.n. administration. The nasal solution was diluted to 10 mg/mL for i.p. administration. Male ddY mice weighing 25 g were purchased from Japan SLC. The animals were maintained under conventional housing conditions. After anesthetization by the inhalation of isoflurane (2%), ANA-TA9 solution (5 μL each) was administered to both nostrils of the mice. The ANA-TA9 solution (100 μL) was administered peritoneally. After making an incision in the abdomen at 5, 15, 30, 45, 60, and 90 min after administration, blood was collected from the postcaval vein. Soon after the blood sampling, the heparinized ice-cold saline was flushed by perfusion from the left ventricle to remove the blood from the cerebral blood vessel. The whole brain was removed; washed with ice-cold saline; and divided into three sections: olfactory bulb, frontal brain, and occipital brain. The tissue concentrations of ANA-TA9 were measured with LC/MS. The plasma and brain concentrations of ANA-TA9 were determined by LC/MS, LC-20A, and LCMS-2020 (SHIMADZU, Kyoto, Japan). Briefly, 100 μL of the plasma were mixed with 1000 μL of methanol. […] To the dissected brain tissue, 100 μL of ice-cold purified water were added, and the mixture was homogenized under ice-cold conditions. To the homogenate, 4000 μL of ice-cold methanol were added. […] The residues were reconstituted with 100 μL of the mobile phase of the chromatography. In the preliminary study, it was confirmed that the effect of rapid degradation of ANA-TA9 on the assay could be excluded by the treatment on the blood and brain tissues mentioned above. Chromatographic separation was performed using a C18 analytical column (TSKgel ODS 100V, 3 μm, 2.0 mm × 100 mm; TOSOH, Tokyo, Japan). The mobile phase was acetonitrile/0.1% acetic acid (10/90), and the flow rate was 0.2 mL/min. ANA-TA9 eluting from the column was detected with mass spectrometry under the positive mode. Nitrogen gas was used for nebulization at a flow rate of 1.5 L/min. Other conditions (temperature and voltage) were set as the default. The calibration curves of ANA-TA9 in the plasma and the brain were determined. […] For the calculation of the direct transport percentage (DTP), the equation by Fukuda M. et al. was slightly modified. The modified equation is as follows:(1) %DTP=(AUCbrain)IN−(AUCbrain)X/(AUCbrain)IN×100 (2) (AUCbrain)X=(AUCbrain)IP/(AUCplasma)IP×(AUCplasma)IN in the above equation, AUCbrain,i.p. and AUCplasma,i.p. are used in place of AUCbrain,i.v. and AUCplasma,i.v. in the original equation by Fukuda M. et al.

Aβ42 = conditions: also three Aβ fragment peptides, particularly Aβ11–29; cited from earlier work
Source text: Recently, we reported the proteolytic activity of the shorter synthetic peptides JAL-TA9 (YKGSGFRMI) and ANA-TA9 (SKGQAYRMI), derived from the Box A region of the Tob1 and ANA/BTG3 proteins. These peptides cleave Aβ42 and three Aβ fragment peptides, particularly Aβ11–29 originating from the central region, which is considered the core region of Aβ42 aggregation/oligomerization. We gave these peptides the general name Catalytide. Catalytides such as JAL-TA9 and ANA-TA9 are attractive candidate peptide drugs for a novel strategy for preventing and treating AD.

[3] = Storage stability of ANA-TA9 at −40 °C (preliminary study); format: physicochemical; conditions: storage at −40 °C (plasma samples)
Description: The rats were anesthetized through i.p. administration of a mixture of medetomidine (0.15 mg/kg body weight), midazolam (2 mg/kg body weight), and butorphanol (2.5 mg/kg body weight). The right femoral artery was cannulated with polyethylene tubing. ANA-TA9 was injected into the left femoral vein of 3 rats at a dose of 2 mg (200 μL of a 10 mg/mL PBS solution). Those 3 rats nasally received the same dose of ANA-TA9 (20 μL of a 100 mg/mL PBS solution) under anesthesia. For nasal administration, a micropipette was used. After i.n. administration, the animals were kept conscious in a rat cage (KN-326-III; Natsume, Tokyo, Japan) throughout the experiment after recovery from anesthesia. The PBS solution of ANA-TA9 (12 mg/mL) was infused intravenously for 10 min at a 25 µL/min flow rate. The infused dose was 3 mg/rat. At the appropriate time intervals after administration, blood samples were taken, heparinized, and immediately cooled down on ice, followed by centrifugation at 15,000 rpm for 5 min to obtain the plasma. The plasma samples were stored at −40 °C until the assay. In the preliminary study, it was confirmed that ANA-TA9 stored at −40 °C is stable for at least 2 weeks.

- concentration in the nasal perfusate, % of the initial concentration [1]: 54%
- tissue level at time at 5 min ([2]; male, ddY, in vivo, inhaled or intranasal, 1 mg): 712 ± 54 ng/g
- Tmax ([2]; male, ddY, inhaled or intranasal, 1 mg, i.n., read-out: time of peak plasma concentration, i.n. (converted)): 5 min
- Tmax ([2]; male, ddY, ip, 1 mg, i.p., read-out: time of peak plasma concentration, i.p. (converted)): 5 min
- time of peak concentration in the frontal brain, i.n. ([2]; i.n.): 30 min
- time of peak concentration in the occipital brain, i.n. ([2]; i.n.): 30 min
- time of peak concentration in the olfactory bulb, i.n. ([2]; i.n.): 5 min
- DTP (direct transport percentage), olfactory bulb ([2]; i.n. vs i.p., from the AUC up to 90 min after administration, mean ± SE of four or five animals): 96.3 ± 0.9%
- time of peak concentration in the olfactory bulb, i.p. ([2]; i.p.): 15 min
- apparent half-life in the olfactory bulb after i.n. administration ([2]; in vivo): 15 min
- time after i.n. administration at which ANA-TA9 could be detected in the olfactory bulb ([2]; in vivo): 60 min
- concentration in the olfactory bulb more than 45 min after i.p. application ([2]; in vivo, ip): below the limit of detection
- peak plasma concentration, i.p. relative to i.n. (times higher) ([2]; in vivo, ip): approximately 11 times
- time for which ANA-TA9 stored at −40 °C is stable [3]: at least 2 weeks
Sequence: SKGQAYRMI [ANA-TA9]
- cleavage of Aβ42 (proteolytic activity) (Aβ42): cleave Aβ42
